Experimental data from PubChem BioAssay AID328 (DTP/NCI, 2004).
Toxic doses and inconclusive results are not listed.

Test system: BDF1 mice, P388 leukemia ip, median survival T/C
Experiment: NCI In Vivo Anticancer Drug Screen. Data for tumor model P388 Leukemia (intraperitoneal) in B6D2F1 (BDF1) mice
Conditions: endpoint: median survival time, higher = longer survival
Experimental: The antitumor activity of compounds was measured in mice bearing transplantable tumors. Survival or tumor size were measured and the results are expressed as the measurement made in the treated group (T) divided by the measurement made in the vehicle treated control group (C). The tumor model used in this assay is P388 Leukemia (intraperitoneal) in B6D2F1 (BDF1) mice

[1] = dose: 50.0 mg/kg/injection, schedule: Q04DX003 (ip), vehicle: saline
[2] = dose: 50.0 mg/kg/injection, schedule: Q01DX009 (ip), vehicle: Klucel (hydroxypropylcellulose) (HPC)
[3] = dose: 100.0 mg/kg/injection, schedule: Q01DX009 (ip), vehicle: Klucel (hydroxypropylcellulose) (HPC)
[4] = dose: 200.0 mg/kg/injection, schedule: Q01DX009 (ip), vehicle: Klucel (hydroxypropylcellulose) (HPC)
[5] = dose: 50.0 mg/kg/injection, schedule: Q01DX009 (ip), vehicle: saline with Tween-80
[6] = dose: 100.0 mg/kg/injection, schedule: Q01DX009 (ip), vehicle: saline with Tween-80

`CN(C)CCCN=C1Nc2ccccc2C(=NCCCN(C)C)Nc2ccccc21` was tested, and the T/C (dose: 12.5 mg/kg/injection, schedule: Q01DX009 (ip), vehicle: saline) was 104 % of control, the T/C (dose: 12.5 mg/kg/injection, schedule: Q04DX003 (ip), vehicle: saline) was 100 % of control and the T/C (dose: 25.0 mg/kg/injection, schedule: Q01DX009 (ip), vehicle: saline) was 95 % of control. The T/C (dose: 25.0 mg/kg/injection, schedule: Q04DX003 (ip), vehicle: saline) was 88 % of control, the T/C (dose: 50.0 mg/kg/injection, schedule: Q01DX009 (ip), vehicle: saline) was 100 % of control and the T/C [1] was 111 % of control.
For `CCC(c1ccc(OC)cc1)C(NCC(=O)N/N=C/c1ccccc1[N+](=O)[O-])c1ccc(OC)cc1` (configuration not stated), the T/C (dose: 12.5 mg/kg/injection, schedule: Q01DX001 (ip), vehicle: saline with Tween-80) was 91 % of control.
In the case of `CC(=O)n1nc2c(c1CC(C)C)C(=O)C(Nc1ccccc1)=CC2=O`, the T/C (dose: 100.0 mg/kg/injection, schedule: Q04DX002 (ip), vehicle: saline with Tween-80) is reported as 102 % of control, the T/C (dose: 200.0 mg/kg/injection, schedule: Q04DX002 (ip), vehicle: saline with Tween-80) is reported as 108 % of control and the T/C (dose: 400.0 mg/kg/injection, schedule: Q04DX002 (ip), vehicle: saline with Tween-80) is reported as 106 % of control.
With `CC[n+]1ccc(Nc2ccc(NC(=O)c3ccc(Nc4cc[n+](CC)c5ccc([N+](=O)[O-])cc45)cc3)cc2)cc1` the T/C (dose: 0.44 mg/kg/injection, schedule: Q04DX003 (ip), vehicle: saline) was 111 % of control, the T/C (dose: 0.66 mg/kg/injection, schedule: Q04DX003 (ip), vehicle: saline) was 116 % of control and the T/C (dose: 1.0 mg/kg/injection, schedule: Q04DX003 (ip), vehicle: saline) was 100 % of control. The T/C (dose: 1.5 mg/kg/injection, schedule: Q04DX003 (ip), vehicle: saline) was 110 % of control, the T/C (dose: 4.0 mg/kg/injection, schedule: Q04DX003 (ip), vehicle: saline) was 150 % of control and the T/C (dose: 6.0 mg/kg/injection, schedule: Q04DX003 (ip), vehicle: saline) was 150 % of control. The T/C (dose: 22.0 mg/kg/injection, schedule: Q04DX003 (ip), vehicle: saline) was 152 % of control, the T/C (dose: 33.0 mg/kg/injection, schedule: Q04DX003 (ip), vehicle: saline) was 180 % of control and the T/C [1] was 186 % of control.
With `Cc1ccc(NC(=O)N(CCCCl)N=O)cc1` the T/C (dose: 25.0 mg/kg/injection, schedule: Q01DX009 (ip), vehicle: Klucel (hydroxypropylcellulose) (HPC)) was 105 % of control, the T/C [2] was 119 % of control and the T/C [3] was 111 % of control. The T/C [4] was 95 % of control.
With `O=[N+]([O-])c1cc([N+](=O)[O-])c2ccccc2c1NS(=O)(=O)c1ccc(Cl)c(Cl)c1Cl` the T/C [5] was 104 % of control and the T/C [6] was 120 % of control.
`Nc1ccc(NS(=O)(=O)Cc2ccccc2)cc1` was tested, and the T/C (dose: 25.0 mg/kg/injection, schedule: Q01DX001 (ip), vehicle: saline with Tween-80) was 100 % of control, the T/C (dose: 50.0 mg/kg/injection, schedule: Q01DX001 (ip), vehicle: saline with Tween-80) was 100 % of control and the T/C (dose: 100.0 mg/kg/injection, schedule: Q01DX001 (ip), vehicle: saline with Tween-80) was 100 % of control.
With `CCOC(=O)Cc1csc(NNC(=O)c2ccccc2)n1` the T/C [5] was 108 % of control, the T/C [6] was 99 % of control and the T/C (dose: 200.0 mg/kg/injection, schedule: Q01DX009 (ip), vehicle: saline with Tween-80) was 101 % of control.
For `COC(=O)C1C(O)C(C)C(O)C(C)(O)C=C(C)C2=C3C(=C(C)C(=O)c4c(O)c(c(C)c(OC(C)=O)c43)NC(=O)C(C)=C/C=C\C(C)(O)C(O)C(C)C1O)OCO2` (configuration not stated), the T/C [2] was 119 % of control, the T/C [3] was 110 % of control and the T/C [4] was 116 % of control.
In the case of `Cc1ccc(Cl)cc1O`, the T/C [5] is reported as 100 % of control, the T/C [6] is reported as 96 % of control and the T/C (dose: 200.0 mg/kg/injection, schedule: Q04DX003 (ip), vehicle: saline + alcohol) is reported as 104 % of control. For the same molecule, the T/C (dose: 300.0 mg/kg/injection, schedule: Q04DX003 (ip), vehicle: saline + alcohol) was 104 % of control and the T/C (dose: 450.0 mg/kg/injection, schedule: Q04DX003 (ip), vehicle: saline + alcohol) was 91 % of control.
With `CCCCCCCCCCCCCCCCCC[N+](C)(C)C` (tested in a mixture with another compound) the T/C (dose: 1.0 mg/kg/injection, schedule: Q01DX009 (ip), vehicle: saline) was 109 % of control, the T/C (dose: 2.0 mg/kg/injection, schedule: Q01DX009 (ip), vehicle: saline) was 113 % of control and the T/C (dose: 4.0 mg/kg/injection, schedule: Q01DX009 (ip), vehicle: saline) was 118 % of control.
